5 molecules from ChEMBL document CHEMBL1154012, “Synthesis and SAR of novel tricyclic quinoxalinone inhibitors of poly(ADP-ribose)polymerase-1 (PARP-1)” (Bioorg Med Chem Lett, 2009) can be followed below.

As a reminder, the pKi is −log10 of the Ki, conventionally taken in molar units. One may read the pEC50 as the negative decadic logarithm of the EC50, by convention in mol/L. Lower therefore signals a high EC50.

pEC50, pKi: −log10 of the molar value.

The target of test [1] is T1, Poly [ADP-ribose] polymerase 1 (Homo sapiens, UniProt P09874).
Description: Inhibition of PARP1 by microplate scintillation counting
The target in test [2] is T1, Poly [ADP-ribose] polymerase 1. This is another data set of the same source.
Description: Inhibition of PARP1 in human C41 cells by DAPI staining-based FITC analysis

T1 sequence (P09874 whole entry): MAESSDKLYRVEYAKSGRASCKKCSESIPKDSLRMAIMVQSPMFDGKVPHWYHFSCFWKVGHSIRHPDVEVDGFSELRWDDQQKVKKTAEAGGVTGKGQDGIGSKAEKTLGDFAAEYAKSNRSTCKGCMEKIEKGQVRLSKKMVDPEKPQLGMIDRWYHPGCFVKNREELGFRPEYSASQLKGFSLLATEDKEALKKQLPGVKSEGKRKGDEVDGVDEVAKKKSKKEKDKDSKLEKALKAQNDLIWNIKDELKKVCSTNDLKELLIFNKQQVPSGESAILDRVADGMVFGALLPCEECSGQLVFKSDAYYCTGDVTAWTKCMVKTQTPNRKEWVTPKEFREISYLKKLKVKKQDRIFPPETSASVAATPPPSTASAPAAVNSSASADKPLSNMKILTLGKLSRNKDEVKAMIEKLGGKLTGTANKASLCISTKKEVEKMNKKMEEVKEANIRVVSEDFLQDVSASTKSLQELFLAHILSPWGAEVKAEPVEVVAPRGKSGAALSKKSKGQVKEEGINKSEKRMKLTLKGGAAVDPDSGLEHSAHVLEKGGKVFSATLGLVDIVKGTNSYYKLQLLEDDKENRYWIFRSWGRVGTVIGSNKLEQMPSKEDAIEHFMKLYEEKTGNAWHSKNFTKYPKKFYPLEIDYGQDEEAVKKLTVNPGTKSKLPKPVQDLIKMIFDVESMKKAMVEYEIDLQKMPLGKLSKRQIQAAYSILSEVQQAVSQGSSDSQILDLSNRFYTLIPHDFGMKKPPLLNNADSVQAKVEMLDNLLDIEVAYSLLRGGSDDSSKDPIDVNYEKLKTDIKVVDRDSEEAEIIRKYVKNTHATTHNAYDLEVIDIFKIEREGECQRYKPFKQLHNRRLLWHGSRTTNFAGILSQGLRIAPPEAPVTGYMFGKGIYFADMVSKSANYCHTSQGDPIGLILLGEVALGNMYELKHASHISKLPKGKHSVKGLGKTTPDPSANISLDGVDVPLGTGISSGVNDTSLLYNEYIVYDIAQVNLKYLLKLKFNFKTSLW

For the molecule `CN(C)Cc1ccc2c(c1)NC(=O)C1CCCN21` (stereo not drawn), in test [1], the pKi is 6.72. The pEC50 in test [2] was 6.19. In the case of `O=c1[nH]c2ccc(CNC3CC3)cc2n2cccc12`, the pKi in test [1] is 7.51. In test [2], the negative logarithm of the EC50 (pEC50) is 7.60. Take `O=c1[nH]c2ccc(CN3CCCCC3)cc2n2cccc12`: the negative logarithm of the EC50 (pEC50) in test [2] is 7.51.

For the molecule `O=c1[nH]c2cc(CNCc3ccccc3)ccc2n2cccc12`, the negative logarithm of the Ki (pKi) in test [1] was 6.79. In test [2], the pEC50 was 6.79. `O=c1[nH]c2cc(CN3CCCC3)ccc2n2cccc12` showed a pEC50 in test [2] of 8.22.
